These are literature values, as cited in patent US7251609B1, “Method for conducting clinical trials over the internet” (The Trustees of Boston University, priority 1999, dated 2007).

This series relates to patients with knee OA.

Turning to `Cl.N[C@H]1C(O)O[C@H](CO)[C@@H](O)[C@@H]1O` (stereo partly drawn) [glucosamine hydrochloride], the major adverse events entry (94 patients with knee OA) is on record as “No major adverse events”. Besides, the “rate of minor adverse symptoms” value (94 patients with knee OA, identical rate in glucosamine and placebo groups) is 12%. Where the note is “study of Houpt et al, knee OA”, the efficacy entry is “only modest efficacy”.
